From patent US6365623B1, “Treatment of acne using lipoic acid” (priority 1997, dated 2002) come the findings set out here.

In data set [1] the test system is affected skin areas. The data set is described as follows: Adverse side effects in clinical studies to date (topical application). The data set is classed as in vivo, human. An excerpt: Generally in the practice of the method of the invention, the composition is topically applied to the affected skin areas in a predetermined or as-needed regimen either at intervals by application of a lotion or the like, it generally being the case that gradual improvements is noted with each successive application.

For data set [2], the system named is patients with acne vulgaris and/or acneiform scars. Kind of data set: Clinical study of 5% lipoic acid cream applied to the face, assessed by a dermatologist. It counts as in vivo, human. The procedure:
The following examples are presented to further illustrate and explain the present invention and should not be taken as limiting in any regard. Unless otherwise indicated, all percentages are by weight. Lipoic acid was supplied by the Henkel Corporation and was placed into a lecithin-based oil-in-water cream at a level of 5% for use by acne patients. This composition was used in the studies unless otherwise indicated.
Eight patients with acne vulgaris and/or acneiform scars were evaluated and photographed at the beginning of the study. The patients were asked to cleanse their faces with Cetaphil™ lotion twice daily, and then to apply the test lipoic acid composition. Clinical evaluations were made every four weeks thereafter. Photographs were retaken at the end of twelve weeks, and five patients continued treatment for up to a year.
The following parameters were reported in clinical assessments by a dermatologist in the follow-up evaluations:
1. visibly apparent changes in erythema
2. visibly apparent changes in pore size

A short description of data set [3]: Skin penetration after topical application. The data set is classed as in vivo. To be noted: four hours after application to skin. The source says: While not wishing to be bound to any theory, it is possible that lipoic acid is efficacious in the treatment of acne because it is both fat- and water-soluble and readily disperses in cell membranes and other cellular components. […] Because of its solubility, it is sometimes referred to as a universal antioxidant. It acts as a free radical scavenger and neutralizer, and prevents the cross-linking of cell membranes that is often seen in acne in its post-inflammatory phases. By the same token, LA modulation of free radicals and other oxidative species affects gene expression, including expression of nuclear factor κ-B (NF-κB), nitric oxide synthetase and other mediators at all stages of proinflammation and inflammation. Lipoic acid's alteration of lipid peroxidation, protein cross-linking, growth factor stimulation, and membrane permeability may explain its negative effect on the symptoms of acne.

The mark [4] stands for this setting: 5% lipoic acid in lecithin-based oil-in-water cream, topical twice daily, one value per patient (Pt. #1-#8).

Values joined by “and” are separate entries in the source; they are usually repeats but may differ in a detail not shown here. Equal entries are not always repeated.

With `O=C(O)CCCCC1CCSS1` (centres unmarked) [lipoic acid, 1,2-dithiolane-3-pentanoic acid], the adverse side effects entry in data set [1] is listed as “no adverse side effects”. Moreover, in data set [2] (5% cream, topical twice daily), the “improvement in two patients with severe atrophic acne scars” value came to 80% and the “improvement of atrophic scars, all patients with atrophic scars” value is “improved”. The “change in pustules, papules, and comedones” value in data set [2] (5% cream, within three to four weeks, benefits continued to increase over three to four months) is on record as “marked decrease”. Moreover, in data set [2] (setting [4]), the “Erythema % Improvement” value was 80% (3×) and 50% (5×); the “Pore Size % Improvement” value was 50% (3×) and 90% (5×); the “Scar Depth % Improvement” value was 50% (4×) and 80% (2×) and 70% (2×). Further, the “concentration in sebaceous gland tissue” value in data set [3] was “high concentrations”.
